Where two headings read alike, the source gives them in different places. Where a SMILES comes first, the peptide text is derived from it. [ ]: non-standard residue; d: D form. The star is where a group is joined. pNA = O=[N+]([O-])c1ccc(N*)cc1; pGlu = O=C1CC[C@@H](C(=O)O)N1
Assays:
[1] = biological target: T1, t-PA (tissue-type plasminogen activator) (Homo sapiens, UniProt P00750); test: Km determination of amidolytic chromogenic substrates with t-PA; assay type: biochemical; settings: 3 units per hole, 100 mM Tris pH 8.0/100 mM NaCl/0.01% Tween 80, 37° C., Lineweaver-Burk plot
Procedure: (§1) In a 96-hole plate, respectively 90 μl of 100 mM Tris pH 8.0/100 mM NaCl/0.01% "Tween" 80 and 50 μl of the corresponding chromogenic substrate (all from Kabi Vitrum, Stockholm, Sweden) in the final concentrations of 0.03/0.06/0.1/0.3/0.6 and 1 mM are incubated with 10 μl (3 units per hole) of the corresponding plasminogen activator at 37° C., and the thus-released p-nitroaniline is determined photometrically at 405 nm at various points in time between 0-7 hours. The resultant data are evaluated with the aid of a Lineweaver-Burk plot, and the Km value is determined (Segel, I. H., Enzyme Kinetics, John Wiley and Sons, New York). The following chromogenic substrates were utilized:

Urokinase [2] = biological target: T2, Urokinase (Homo sapiens, UniProt P00749); test: Km determination of amidolytic chromogenic substrates with urokinase; assay type: biochemical; settings: 3 units per hole, 100 mM Tris pH 8.0/100 mM NaCl/0.01% Tween 80, 37° C., Lineweaver-Burk plot
Procedure: as §1

[3] = biological target: T1, t-PA (tissue-type plasminogen activator); settings: literature value (Friedberger 1982), read-out: Km (value in parentheses, from the literature); cited from earlier work
Urokinase [4] = biological target: T2, Urokinase; settings: literature value (Friedberger 1982), read-out: Km (value in parentheses, from the literature); cited from earlier work

T1 sequence (P00750 36-562): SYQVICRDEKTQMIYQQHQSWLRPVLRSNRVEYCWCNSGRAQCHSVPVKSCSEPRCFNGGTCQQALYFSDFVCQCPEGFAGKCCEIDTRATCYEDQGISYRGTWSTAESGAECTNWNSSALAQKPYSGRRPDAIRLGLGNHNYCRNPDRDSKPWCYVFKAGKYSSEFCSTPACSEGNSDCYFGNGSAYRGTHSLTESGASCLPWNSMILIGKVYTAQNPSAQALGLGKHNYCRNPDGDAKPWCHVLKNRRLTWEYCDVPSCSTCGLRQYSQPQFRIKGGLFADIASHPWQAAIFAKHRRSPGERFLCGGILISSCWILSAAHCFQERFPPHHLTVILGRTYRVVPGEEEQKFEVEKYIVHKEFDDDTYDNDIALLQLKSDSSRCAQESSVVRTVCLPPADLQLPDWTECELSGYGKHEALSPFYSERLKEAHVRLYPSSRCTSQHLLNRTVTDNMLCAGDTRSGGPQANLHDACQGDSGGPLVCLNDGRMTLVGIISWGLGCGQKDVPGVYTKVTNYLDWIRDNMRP

Km [1] [µM] | Km (Urokinase [2]; read-out: Km) [µM] | Compound | Km [3] [µM] | Km (Urokinase [2]) [µM] | Km (Urokinase [4]) [µM]
700 | 400 | CC[C@@H](C)[C@@H](N)C(=O)N1CCC[C@H]1C(=O)N[C@@H](CCCNC(=N)N)C(=O)Nc1ccc([N+](=O)[O-])cc1 [S-2288, H-D-Ile-Pro-Arg-pNA] (H-[dI]-Pro-Arg-pNA) | 1000 | – | –
– | – | N=C(N)NCCC[C@H](NC(=O)CNC(=O)[C@@H]1CCC(=O)N1)C(=O)Nc1ccc([N+](=O)[O-])cc1 [S-2444, <Glu-Gly-Arg-pNA] ([pGlu]-Gly-Arg-pNA) | – | 100 | 90
